Measured values published in US5106834A, “Linear free-sulfhydryl-containing oligopeptide derivatives as antihypertensive agents” (G. D. Searle & Co., priority 1988, dated 1992).
Positions of bridges follow the written chain, without caps; N, C: chain ends. Non-standard residues stand in square brackets, D forms with d. Residues, ends and D or L forms follow the SMILES beside them. No end group written: not given here. Cha = N[C@@H](CC1CCCCC1)C(=O)O; Pen = CC(C)(S)[C@H](N)C(=O)O

Test system: rabbit aortic rings

Compound | EC50 (read-out: EC50 in the rabbit aorta, relaxation of norepinephrine precontracted rings, n = 8) | Relative Potencies to ANP-(103-126), Rabbit Aorta (relaxation of norepinephrine (50 nM) precontracted rings, EC50 compared with ANP-(103-126))
CC[C@H](C)[C@@H]1NC(=O)[C@H](CCCNC(=N)N)NC(=O)[C@H](CC(=O)O)NC(=O)[C@H]([C@@H](C)CC)NC(=O)[C@H](CCCNC(=N)N)NC(=O)CNC(=O)CNC(=O)[C@H](Cc2ccccc2)NC(=O)[C@@H](NC(=O)[C@H](CO)NC(=O)[C@@H](N)CO)CSSC[C@@H](C(=O)N[C@@H](CC(N)=O)C(=O)N[C@@H](CO)C(=O)N[C@@H](Cc2ccccc2)C(=O)N[C@@H](CCCNC(=N)N)C(=O)N[C@@H](Cc2ccc(O)cc2)C(=O)O)NC(=O)CNC(=O)[C@H](CC(C)C)NC(=O)CNC(=O)[C@H](CO)NC(=O)[C@H](CCC(N)=O)NC(=O)[C@H](C)NC(=O)CNC1=O [ANP-(103-126), ATRIOPEPTIN III] (H-SSCFGGRIDRIGAQSGLGCNSFRY-OH; disulfide 3-19) | 2.3 ± 1.6 nM | 
[Pen][Cha]GRIDRIG-NH2 [Peptide No. 6] |  | 0.010
